Series [1] has as its system incisional wounds. Briefly: Incisional scarring model, macroscopic and microscopic VAS scar assessment 70 days after wounding. It counts as in vivo, Male Sprague Dawley rats. As for the experimental part:
The guggulsterone (Z) was diluted in a solution containing 1% v/v ethanol (absolute ethanol, 200 proof, for molecular biology, purchased from Sigma-Aldrich) in phosphate buffered saline (PBS) to produce three solutions having concentrations as follows: • 1. 1 ng/100 μl (a 32 nM solution); • 2. 10 ng/100 μl (a 321 nM solution); and • 3. 1000 ng/100 μl (a 32 μM solution). At Day 0, male Sprague Dawley rats (200-250 g) were anaesthetised, shaved and wound sites were marked according to the Renovo rat incisional wounding template (2 wound model, 2×1 cm wounds at 5 cm from the base of the skull and 1 cm from the midline in each rat). […] The scars were assessed using standard macroscopic scar assessment sheets that include a Visual Analogue Scale (VAS) to quantify the quality of the scars. […] 70 days after wounding the experimental rats were killed, and the scars resulting from treated wounds and control wounds assessed both macroscopically and microscopically. The scars of the experimental rats were photographed and assessed using macroscopic scar assessment sheets. […] The best scars (typically of small width with colour, height and contour like normal skin) were scored towards the normal skin end of the scale (the left hand side of the VAS line) and bad scars (typically large width, raised with uneven contours and whiter colour) were scored towards the bad scar end of the scale (the right hand side of the VAS line). The marks were measured from the left hand side to provide the final value for the scar assessment in centimetres (to 1 decimal place). […] Histological slides were stained using Masson's trichrome, and scarring assessed, by two independent observers, using a microscopic visual analogue scale (VAS). […]

The test system of series [2] is excisional wounds. Kind of series: Excisional wound healing model, wound width and re-epithelialisation three days after wounding. The format is in vivo, Male Sprague Dawley rats. As to conditions: for wound width of excisional wounds: three days after wounding, p<0.05 vs controls. How it is done: The guggulsterone (Z) was diluted in a solution containing 1% v/v ethanol (absolute ethanol, 200 proof, for molecular biology, purchased from Sigma-Aldrich) in phosphate buffered saline (PBS) to produce three solutions having concentrations as follows: • 1. 1 ng/100 μl (a 32 nM solution); • 2. 10 ng/100 μl (a 321 nM solution); and • 3. 1000 ng/100 μl (a 32 μM solution). At day 0, Male Sprague Dawley rats (200-250 g) were anaesthetised, shaved and wound sites were marked according to the Renovo rat incisional and excisional wounding template (4 wound model, 2×1 cm wounds at 5 cm from the base of the skull and 1 cm from the midline in each rat and 2×5 mm excisions at 8.5 cm from the base of the skull and 1 cm from the midline of each rat). One hundred microlitres of Guggulsterone (Z) at 1 ng, 10 ng or 1000 ng in 1% v/v ethanol/PBS (EtOH/PBS), were injected intradermally at the target wound sites, A, B, C and D. The intradermal injections caused the formation of a raised bleb, which was then either immediately incised to form 1 cm long experimental wounds at wound positions A and B, or subject to a 5 mm punch biopsy, at wound positions C and D. A separate group of rats were wounded, without any injection, to act as the untreated Naïve control group in addition to the diluent injected control group. All treated wounds were re-injected again 1 day post-wounding with the appropriate treatment via either injection of […] to each of the two margins of the 1 cm wound, or via injection of 25 μl to each of the four quadrants of a 5 mm punch biopsy, and harvested at day 3 post-wounding. […] The wounds were assessed using standard macroscopic wound assessment sheets that include a Visual Analogue Scale (VAS) to quantify the quality of the wounds. The excisions and incisions were analysed microscopically, after histological processing by image analysis for re-epithelialisation (excisions only) and wound width (incisions only) to determine the role of Guggulsterone (Z) on early wound healing. […] The average wound width value was calculated from all of the wounds at each treatment group.

The conditions of series [3]: cited from earlier work.
Where [4] appears, read: each concentration investigated (1, 10, 1000 ng/100 μl), 70 days post-wounding.

With `C/C=C1\C(=O)CC2C3CCC4=CC(=O)CC[C@]4(C)C3CC[C@]12C` (stereo partly drawn) [Guggulsterone (Z), (17Z)-Pregna-4,17(20)-diene-3,16-dione-4,17(20)-cis-Pregnadiene-3,16-dione], in series [1] (setting [4]), the “inhibition of scarring, macroscopic analysis of scars” value was “significantly inhibit scarring” and the “inhibition of scarring, microscopic analysis of scars” value is given as “significantly inhibit scarring”. In addition, in series [1] (representative images, 70 days after wounding), the “macroscopic appearance of treated scar versus naïve control scar (FIG. 3)” value is recorded as “considerably more difficult to detect”. The “wound width of excisional wounds” value in series [2] (1 ng/100 μl (3.2 pmoles per cm of wound)) is “significantly decreased wound width”. In addition, in series [2] (10 ng/100 μl (32 pmoles per cm of wound)), the “wound width of excisional wounds” value was “significantly decreased wound width”. For the same molecule, in series [2] (three days after wound formation), the “promotion of wound contraction, by width of excisional wounds” value is “able to promote wound contraction”. For the same molecule, the “soluble in DMSO” value in series [3] (DMSO, room temperature) is listed as 5 mg/mL. Also, the soluble in ethanol entry in series [3] (ethanol) was “soluble”.
